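Grown in 96-well plates, cells were treated for 48 hours with each compound at five concentrations. Insufficient inhibition: endpoint recorded as highest concentration tested. The concentration for 50% growth inhibition is given as GI50.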 Activity calls are given as the source filed them. Cut-off read from the data, not from the text of the source: active = GI50 up to about 1.1 µM and inactive = higher.
Tests used:
Assay in all cases: NCI-60 cell line screen, 48 h
TK-10 = test system: TK-10
CAKI-1 = test system: CAKI-1
CCRF-CEM = test system: CCRF-CEM
NCI-H23 = test system: NCI-H23
DLD-1 = test system: DLD-1
MOLT-4 = test system: MOLT-4
HCT-15 = test system: HCT-15
SN12C = test system: SN12C
UO-31 = test system: UO-31
RXF 631 = test system: RXF 631
OVCAR-5 = test system: OVCAR-5
SK-MEL-28 = test system: SK-MEL-28
HCC 2998 = test system: HCC 2998
HT-29 = test system: HT-29
SF-268 = test system: SF-268
LXFL 529 = test system: LXFL 529
SF-539 = test system: SF-539
HCT-116 = test system: HCT-116
HOP-62 = test system: HOP-62
KM12 = test system: KM12
A549 = test system: A549
SNB-19 = test system: SNB-19
SNB-78 = test system: SNB-78
HOP-92 = test system: HOP-92
XF498 = test system: XF498
Malme-3M = test system: Malme-3M
U-251 = test system: U-251
SK-OV-3 = test system: SK-OV-3
EKVX = test system: EKVX
OVCAR-8 = test system: OVCAR-8
SW-620 = test system: SW-620
M14 = test system: M14
786-0 = test system: 786-0
SF-295 = test system: SF-295
NCI-H522 = test system: NCI-H522
OVCAR-3 = test system: OVCAR-3
A498 = test system: A498
OVCAR-4 = test system: OVCAR-4
UACC-62 = test system: UACC-62
SR = test system: SR
SNB-75 = test system: SNB-75
RXF 393 = test system: RXF 393
K562 = test system: K562
SK-MEL-2 = test system: SK-MEL-2
M19-MEL = test system: M19-MEL
NCI-H460 = test system: NCI-H460
ACHN = test system: ACHN
IGROV-1 = test system: IGROV-1
SK-MEL-5 = test system: SK-MEL-5
KM-20L2 = test system: KM-20L2
DU-145 = test system: DU-145
MDA-N = test system: MDA-N
NCI-H226 = test system: NCI-H226
HOP-18 = test system: HOP-18
T47D = test system: T47D
LOX IMVI = test system: LOX IMVI
DMS-114 = test system: DMS-114
COLO 205 = test system: COLO 205
MCF7 = test system: MCF7
HL-60 = test system: HL-60
MDA-MB-231 = test system: MDA-MB-231
PC-3 = test system: PC-3
UACC-257 = test system: UACC-257
BT-549 = test system: BT-549
DMS-273 = test system: DMS-273
MDA-MB-435 = test system: MDA-MB-435
NCI/ADR-RES = test system: NCI/ADR-RES
Hs-578T = test system: Hs-578T
RPMI-8226 = test system: RPMI-8226

## CC1(Cl)CC(C)(/C=C/Cl)C(Cl)CC1Cl (configuration not stated)
TK-10
  GI50: 26.1 µM (inactive)
CAKI-1
  GI50: 16.1 µM (inactive)
CCRF-CEM
  GI50: 19.1 µM (inactive)
NCI-H23
  GI50: 19.8 µM (inactive)
DLD-1
  GI50: 16.7 µM (inactive)
MOLT-4
  GI50: 14.3 µM (inactive)
HCT-15
  GI50: 14.1 µM
SN12C
  GI50: 17.3 µM (inactive)
UO-31
  GI50: 16.1 µM (inactive)
RXF 631
  GI50: 12.8 µM (inactive)
OVCAR-5
  GI50: 18.9 µM (inactive)
SK-MEL-28
  GI50: 15 µM (inactive)
HCC 2998
  GI50: 17.1 µM (inactive)
HT-29
  GI50: 11.6 µM (inactive)
SF-268
  GI50: 15.9 µM (inactive)
LXFL 529
  GI50: 14.7 µM (inactive)
SF-539
  GI50: 17.1 µM (inactive)
HCT-116
  GI50: 10.1 µM (inactive)
HOP-62
  GI50: 19.9 µM (inactive)
KM12
  GI50: 16.6 µM (inactive)
A549
  GI50: 14 µM (inactive)
SNB-19
  GI50: 17.4 µM (inactive)
SNB-78
  GI50: 20.9 µM (inactive)
HOP-92
  GI50: 0.615 µM (active)
XF498
  GI50: 14.4 µM (inactive)
Malme-3M
  GI50: 14.9 µM (inactive)
U-251
  GI50: 16.9 µM (inactive)
SK-OV-3
  GI50: 38.4 µM (inactive)
EKVX
  GI50: 12.1 µM (inactive)
OVCAR-8
  GI50: 16.8 µM (inactive)
SW-620
  GI50: 15.7 µM (inactive)
M14
  GI50: 17 µM (inactive)
786-0
  GI50: 15.4 µM (inactive)
SF-295
  GI50: 15.2 µM (inactive)
NCI-H522
  GI50: 16.7 µM (inactive)
OVCAR-3
  GI50: 14.5 µM (inactive)
A498
  GI50: 19.2 µM (inactive)
OVCAR-4
  GI50: 17.7 µM (inactive)
UACC-62
  GI50: 16.1 µM (inactive)
SR
  GI50: 18.2 µM (inactive)
SNB-75
  GI50: 18.8 µM (inactive)
RXF 393
  GI50: 14.8 µM (inactive)
K562
  GI50: 9.79 µM (inactive)
SK-MEL-2
  GI50: 13.5 µM (inactive)
M19-MEL
  GI50: 18.7 µM (inactive)
NCI-H460
  GI50: 14.2 µM (inactive)
ACHN
  GI50: 14.7 µM (inactive)
IGROV-1
  GI50: 12.9 µM (inactive)
SK-MEL-5
  GI50: 14 µM (inactive)
KM-20L2
  GI50: 13.2 µM (inactive)

## O=C(NP(=O)(N1CC1)N1CC1)c1cc(I)ccc1I [DIIODBENZOTEPH]
TK-10
  GI50: > 100 µM (inactive)
DU-145
  GI50: 15.6 µM (inactive)
MDA-N
  GI50: > 73.6 µM (inactive)
NCI-H226
  GI50: 46.1 µM (inactive)
CAKI-1
  GI50: > 22.3 µM (inactive)
CCRF-CEM
  GI50: 4.86 µM (inactive)
NCI-H23
  GI50: 10.9 µM (inactive)
HOP-18
  GI50: > 92.3 µM (inactive)
DLD-1
  GI50: > 100 µM (inactive)
MOLT-4
  GI50: 5.58 µM (inactive)
HCT-15
  GI50: 69.3 µM
T47D
  GI50: 22.9 µM (inactive)
LOX IMVI
  GI50: 12.4 µM (inactive)
SN12C
  GI50: 26.8 µM (inactive)
UO-31
  GI50: 28.1 µM (inactive)
DMS-114
  GI50: 19.9 µM (inactive)
OVCAR-5
  GI50: > 84.1 µM (inactive)
SK-MEL-28
  GI50: > 95.3 µM (inactive)
HCC 2998
  GI50: > 67.9 µM (inactive)
HT-29
  GI50: 62.7 µM (inactive)
COLO 205
  GI50: > 91.4 µM (inactive)
SF-268
  GI50: 27.3 µM (inactive)
LXFL 529
  GI50: > 100 µM (inactive)
MCF7
  GI50: 38 µM (inactive)
HL-60
  GI50: 5.06 µM (inactive)
SF-539
  GI50: 23.9 µM (inactive)
HCT-116
  GI50: 40.3 µM (inactive)
HOP-62
  GI50: 19.1 µM (inactive)
KM12
  GI50: > 91.2 µM (inactive)
A549
  GI50: 23.6 µM (inactive)
MDA-MB-231
  GI50: > 100 µM (inactive)
SNB-19
  GI50: 53.7 µM (inactive)
SNB-78
  GI50: > 100 µM (inactive)
HOP-92
  GI50: 59.7 µM (inactive)
XF498
  GI50: > 52.6 µM (inactive)
Malme-3M
  GI50: 50.4 µM (inactive)
PC-3
  GI50: > 67.3 µM (inactive)
U-251
  GI50: 24.6 µM (inactive)
SK-OV-3
  GI50: 25.6 µM (inactive)
EKVX
  GI50: 78 µM (inactive)
OVCAR-8
  GI50: 31.2 µM (inactive)
SW-620
  GI50: 67.5 µM (inactive)
UACC-257
  GI50: > 64.3 µM (inactive)
M14
  GI50: 34.8 µM (inactive)
786-0
  GI50: 21.9 µM (inactive)
SF-295
  GI50: 30 µM (inactive)
NCI-H522
  GI50: 27.3 µM (inactive)
OVCAR-3
  GI50: 36.6 µM (inactive)
A498
  GI50: 64.4 µM (inactive)
OVCAR-4
  GI50: 77.3 µM (inactive)
BT-549
  GI50: 53.7 µM (inactive)
DMS-273
  GI50: 11.6 µM (inactive)
UACC-62
  GI50: 10.4 µM (inactive)
MDA-MB-435
  GI50: 32.3 µM (inactive)
SNB-75
  GI50: 37.9 µM (inactive)
RXF 393
  GI50: 34.6 µM (inactive)
K562
  GI50: 59 µM (inactive)
SK-MEL-2
  GI50: 61 µM (inactive)
M19-MEL
  GI50: 58.9 µM (inactive)
NCI-H460
  GI50: 3.72 µM (inactive)
ACHN
  GI50: 6.05 µM (inactive)
IGROV-1
  GI50: 40.6 µM (inactive)
NCI/ADR-RES
  GI50: 23.3 µM (inactive)
SK-MEL-5
  GI50: 43.1 µM (inactive)
KM-20L2
  GI50: > 100 µM (inactive)
Hs-578T
  GI50: 98.9 µM (inactive)
RPMI-8226
  GI50: 52.7 µM (inactive)

Reference: ChEMBL document CHEMBL1201862, “PubChem BioAssay data set” (2004)
